Data reported in patent publication US6576648B2, “Compound with growth hormone releasing properties” (Novo Nordisk A/S, priority 1999, dated 2003).
Non-standard residues stand in square brackets, D forms with d. Residues, ends and D or L forms follow the SMILES beside them.

Legend:
[1] = tested on: Carboxypeptidase mix: carboxypeptidase Y and B; assay: Metabolic stability in carboxypeptidase mix (ESMS, SIM of molecular ion); conditions: carboxypeptidase Y and B 0.025 mg/ml, 50 mM ammoniumacetate pH 4.5, 37° C., 24 h, decrease in SIM signal
Procedure: (§1) The compound is dissolved at a concentration of 1 mg/ml in water. 25 ml of this solution is added to 175 ml of the respective enzyme-solution (resulting in an enzyme:substrate ratio (w/w) of approximately 1:5). The solution is left at 37° C. overnight. 10 ml of the various degradation solutions is analyzed against a corresponding zero-sample using flow injection electrospray mass spectrometry (ESMS) with selected ion monitoring of the molecular ion. If the signal has decreased more than 20% compared to the zero-sample, the remainder of the solution is analyzed by HPLC and mass spectrometry in order to identify the extent and site(s) of degradation precisely.
(§2) Enzymes (trypsin, chymotrypsin, elastase aminopeptidase M and carboxypeptidase Y and B) were all purchased from Boehringer Mannheim GmbH (Mannheim, Germany) […]
(§3) Quantification of the compound (before and after degradation) was done on the API III instrument using single ion monitoring of the molecular ion in question with flow injection of the analyte. […]
(§4) Identification of degradation products furthermore involved the use of plasma desorption mass spectrometry (PDMS) with sample application on nitrocellulose coated targets and standard instrumental settings. The accuracy of the hereby determined masses is generally better than 0.1%. […]

[2] = tested on: Pancreatic enzyme mix: trypsin, chymotrypsin and elastase; assay: Metabolic stability in pancreatic enzyme mix (ESMS, SIM of molecular ion); conditions: chymotrypsin and elastase 0.025 mg/ml, 100 mM ammoniumbicarbonate pH 8.0, 37° C., 24 h, decrease in SIM signal
Procedure: as §1, §2, §3, §4

[3] = tested on: endogenous growth hormone release; assay: Release of endogenous growth hormone in vivo
[4] = Oral bioavailability, pharmacokinetics in fasted Beagle dogs; type: in vivo; conditions: intravenous and oral administration in 5% glucose solution
Procedure: The pharmacokinetics of the compound can be investigated in fasted Beagle dogs.
Intravenous and oral administration of the test compound, in 5% glucose solution, was separated by a one weeks washout.
Blood samples were collected immediately before drug administration (time zero) and than 0.08, 0.25, 0.50, 0.75, 1.0, 1.5, 2.0, 3.0, 4.0, 5.0, and 6.0 hours after administration.
The plasma samples were stored frozen (<−18° C.) pending analysis.
An HPLC method with solid phase extraction and UV detection was used for the quantification of the compound in plasma.
The pharmacokinetic parameters for compounds were calculated by non-compartmental methods using the PC based pharmacokinetic software WinNonlin, version 1.1 (Scientific Consulting Inc., Apex, N.C., USA).

| Compound | Stability in Carboxypeptidase mix [1] | Stability in Pan. Enzyme mix [2] | ability to release endogenous growth hormone in vivo [3] | oral availability [4] |
| --- | --- | --- | --- | --- |
| C[C@H](NC(=O)[C@@H](Cc1c[nH]c2ccccc12)NC(=O)[C@@H](N)Cc1c[nH]cn1)C(=O)N[C@@H](Cc1c[nH]c2ccccc12)C(=O)N[C@H](Cc1ccccc1)C(=O)N[C@@H](CCCCN)C(N)=O [GHRP-6] (H-H[dW]AW[dF]K-NH2) | − (Unstable (more than 20% decrease in SIM signal after 24 h in degradation solution)) | − (Unstable (more than 20% decrease in SIM signal after 24 h in degradation solution)) |  |  |
| CN(C)N(C)C(=O)[C@@]1(Cc2ccccc2)CCCN(C(=O)[C@@H](Cc2c[nH]c3ccccc23)NC(=O)C(C)(C)N)C1 [Example 1, 2-Amino-N-[(1R)-2-[(3R)-3-benzyl-3-(N,N′,N′-trimethylhydrazinocarbonyl)piperidin-1-yl]-1-(1H-indol-3-ylmethyl)-2-oxoethyl]-2-methylpropionamide] |  |  | possess the ability to release endogenous growth hormone in vivo | about 50% |
| GHRP-2 | − (Unstable (more than 20% decrease in SIM signal after 24 h in degradation solution)) | − (Unstable (more than 20% decrease in SIM signal after 24 h in degradation solution)) |  |  |
